This is an account of results in US20240043420A1, “7-AZAINDOLE COMPOUNDS FOR INHIBITION OF BCR-ABL TYROSINE KINASES” (EnLiven Therapeutics, Inc., priority 2020, published 2024).

One assay deals with K562 cells. The experiment in a line: K562 cell proliferation assay (CellTiter-Glo). It is filed as cell-based. Particulars: Homo sapiens, K562, 72 h, CellTiter-Glo viability, read-out: Cell Line (IC50, nM) K562. The method, boiled down: (§1)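 Cells in IMDM/10% FBS seeded at 2,000 (K562) or 1,500 (HL60) per well, exposed to serially diluted compounds for 72 h at 37 °C, 5% CO2. Viability by CellTiter-Glo luminescence, normalized between DMSO (high) and cell-free media (low) controls.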

The subject of another assay is HL60 cells. The experiment in a line: HL60 cell proliferation assay (CellTiter-Glo). It is filed as cell-based. To be noted: Homo sapiens, HL-60, 72 h, CellTiter-Glo viability, read-out: Cell Line (IC50, nM) HL60. The method, boiled down:
as §1

The target of another assay is T1, ABL1 (Homo sapiens, UniProt P00519).
T1 construct: purchased Carna Biosciences
The experiment in a line: Luminescence-based ABL kinase assay (ADP-Glo, 300 μM ATP). It is filed as biochemical. The method, boiled down:
(§2)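 Buffer: 50 mM HEPES pH 7.5, 10 mM MgCl2, 1 mM EGTA, 2 mM DTT, 0.05% BSA. Compound preincubated 30 min at RT with kinase (3.325 nM in enzyme solution), then started with a Peptide 2 (6 μM) and ATP (1.2 mM) solution, both stock levels; 90 min at RT.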

A further assay has as its target ABL1 (T315I) (Homo sapiens, UniProt P00519, T315I). Description: Luminescence-based ABL kinase assay (ADP-Glo, 300 μM ATP), T315I mutant. It is filed as biochemical. The procedure, abridged:
as §2

`COc1ccccc1-c1c[nH]c2nc(NC(=O)[C@@H]3C[C@@H]3CCO)ccc12` (relative stereo) [Compound 105, cis-2-(2-hydroxyethyl)-N-(3-(2-methoxyphenyl)-1H-pyrrolo[2,3-b]pyridin-6-yl)cyclopropanecarboxamide]: the half-maximal inhibitory concentration (IC50) is 489 nM with K562 cells, over 10000 nM in the assay with HL60 cells, 109 nM at ABL1 and 19.9 nM on ABL1 (T315I).

As for `COc1cc2nccn2cc1-c1c[nH]c2nc(NC(=O)[C@@H]3C[C@@H]3F)ccc12` [Compound 72, (1S,2S)-2-fluoro-N-(3-(7-methoxyimidazo[1,2-a]pyridin-6-yl)-1H-pyrrolo[2,3-b]pyridin-6-yl)cyclopropane-1-carboxamide], the 50% inhibitory concentration (IC50) in the assay with K562 cells is 1020 nM; in the assay on HL60 cells, over 10000 nM; at ABL1, 70.2 nM; at ABL1 (T315I) it was 162 nM.

`COc1c(-c2n[nH]c3nc(NC(=O)[C@@H]4C[C@@H]4F)ccc23)ccc2[nH]cnc12` [Compound 90, (1S,2S)-2-fluoro-N-[3-(4-methoxy-1H-1,3-benzodiazol-5-yl)-1H-pyrazolo[3,4-b]pyridin-6-yl]cyclopropane-1-carboxamide]: the IC50 in the assay with K562 cells is 1100 nM; in the assay with HL60 cells it was over 10000 nM; at ABL1, 21.7 nM; at ABL1 (T315I) it was 15 nM.

Take `O=C(Nc1ccc2c(-c3ccccc3F)c[nH]c2n1)C1CC1` [Compound 5, N-[3-(2-fluorophenyl)-1H-pyrrolo[2,3-b]pyridin-6-yl]cyclopropanecarboxamide]: the IC50 in the assay on K562 cells is 713 nM; in the assay on HL60 cells, over 10000 nM; at ABL1 it was 119 nM; at ABL1 (T315I), 32.9 nM.

With `COc1nccc(C)c1-c1n[nH]c2nc(NC(=O)[C@@H]3C[C@@H]3F)ccc12` [Compound 112, (1S,2S)-2-fluoro-N-[3-(2-methoxy-4-methylpyridin-3-yl)-1H-pyrazolo[3,4-b]pyridin-6-yl]cyclopropane-1-carboxamide], the IC50 in the assay with K562 cells was 1860 nM; in the assay on HL60 cells it was over 10000 nM; at ABL1, 271 nM; against ABL1 (T315I), 157 nM.

Take `COc1nc2[nH]cnc2cc1-c1c[nH]c2nc(NC(=O)[C@@H]3C[C@@H]3F)ccc12` [Compound 83, (1S,2S)-2-fluoro-N-(3-[5-methoxy-3H-imidazo[4,5-b]pyridin-6-yl]-1H-pyrrolo[2,3-b]pyridin-6-yl)cyclopropane-1-carboxamide]: the IC50 in the assay with K562 cells is 48.8 nM; with HL60 cells, over 10000 nM; against ABL1, 1.52 nM; on ABL1 (T315I), 1.74 nM.

For the compound `COc1ncc(F)c(OC)c1-c1c[nH]c2nc(NC(=O)[C@H]3C[C@H]3F)ccc12` [Compound 125, (1R,2R)-2-fluoro-N-[3-(5-fluoro-2,4-dimethoxypyridin-3-yl)-1H-pyrrolo[2,3-b]pyridin-6-yl]cyclopropane-1-carboxamide], the IC50 with K562 cells is 104 nM; in the assay with HL60 cells it was over 10000 nM; on ABL1, 22.2 nM; against ABL1 (T315I) it was 39.5 nM.

In the case of `O=C(Nc1ccc2c(-c3ccc4[nH]ncc4c3)c[nH]c2n1)C1CC1` [Compound 21, N-(3-(1H-indazol-5-yl)-1H-pyrrolo[2,3-b]pyridin-6-yl)cyclopropanecarboxamide], the IC50 in the assay on K562 cells is 286 nM; with HL60 cells it was 1570 nM; against ABL1, 94.8 nM; against ABL1 (T315I), 8.74 nM.

As for `COc1c(-c2c[nH]c3nc(NC(=O)[C@@H]4C[C@@H]4F)ccc23)ccn2ncnc12` [Compound 115, (1S,2S)-2-fluoro-N-(3-[8-methoxy-[1,2,4]triazolo[1,5-a]pyridin-7-yl]-1H-pyrrolo[2,3-b]pyridin-6-yl)cyclopropane-1-carboxamide], the IC50 with K562 cells is 382 nM; in the assay with HL60 cells, over 10000 nM; on ABL1 it was 124 nM; against ABL1 (T315I), 151 nM.

As to `Cc1nc2cc(-c3c[nH]c4nc(NC(=O)C5CC5)ccc34)ccc2[nH]1` [Compound 29, N-(3-(2-methyl-1H-benzo[d]imidazol-5-yl)-1H-pyrrolo[2,3-b]pyridin-6-yl)cyclopropanecarboxamide], the 50% inhibitory concentration (IC50) in the assay with K562 cells turned out to be 454 nM; with HL60 cells, 470 nM; on ABL1 it was 41.8 nM; on ABL1 (T315I), 10.5 nM.

As for `COc1ccccc1-c1c[nH]c2nc(NC(=O)NCCC3CCN(C4COC4)CC3)ccc12` [Compound 110, 3-[3-(2-methoxyphenyl)-1H-pyrrolo[2,3-b]pyridin-6-yl]-1-[2-[1-(oxetan-3-yl)piperidin-4-yl]ethyl]urea], the half-inhibitory concentration (IC50) with K562 cells was 382 nM; with HL60 cells, over 10000 nM; against ABL1 it was 74.8 nM; at ABL1 (T315I), 18.2 nM.

For `COc1cc(F)ccc1-c1n[nH]c2nc(NC(=O)[C@@H]3C[C@@H]3F)ccc12` [Compound 99, (1S,2S)-2-fluoro-N-[3-(4-fluoro-2-methoxyphenyl)-1H-pyrazolo[3,4-b]pyridin-6-yl]cyclopropane-1-carboxamide], the IC50 was 129 nM in the assay on K562 cells, over 10000 nM in the assay on HL60 cells, 14.9 nM on ABL1 and 25.7 nM against ABL1 (T315I).

As for `COc1ccccc1-c1c[nH]c2nc(NC(=O)NCCOCCN(C)C)ccc12` [Compound 124, 3-[2-[2-(dimethylamino)ethoxy]ethyl]-1-[3-(2-methoxyphenyl)-1H-pyrrolo[2,3-b]pyridin-6-yl]urea], the IC50 is 359 nM with K562 cells, over 10000 nM with HL60 cells, 317 nM on ABL1 and 30.6 nM against ABL1 (T315I).

As for `CCNC(=O)Nc1ccc2c(-c3ccccc3OC)c[nH]c2n1` [Compound 103, 3-ethyl-1-[3-(2-methoxyphenyl)-1H-pyrrolo[2,3-b]pyridin-6-yl]urea], the IC50 in the assay on K562 cells is 751 nM; in the assay with HL60 cells it was over 10000 nM; at ABL1 it was 99.2 nM; against ABL1 (T315I), 32.5 nM.

Consider `COc1cc2scnc2cc1-c1c[nH]c2nc(NC(=O)[C@@H]3C[C@@H]3F)ccc12` [Compound 85, (1S,2S)-2-fluoro-N-[3-(6-methoxy-1,3-benzothiazol-5-yl)-1H-pyrrolo[2,3-b]pyridin-6-yl]cyclopropane-1-carboxamide], for which the IC50 with K562 cells worked out at 46 nM; with HL60 cells, 7250 nM; against ABL1 it was 5.34 nM; at ABL1 (T315I), 27.8 nM.

Regarding `CCOc1ncccc1-c1n[nH]c2nc(NC(=O)[C@@H]3C[C@@H]3F)ccc12` [Compound 64, (1S,2S)—N-[3-(2-ethoxypyridin-3-yl)-1H-pyrazolo[3,4-b]pyridin-6-yl]-2-fluorocyclopropane-1-carboxamide], the 50% inhibitory concentration (IC50) in the assay on K562 cells was 610 nM; in the assay with HL60 cells it was over 10000 nM; at ABL1 it was 56.9 nM; on ABL1 (T315I), 140 nM.

Consider `COc1nc2cn[nH]c2cc1-c1c[nH]c2nc(NC(=O)C3CC3)ccc12` [Compound 60, N-(3-[5-methoxy-1H-pyrazolo[4,3-b]pyridin-6-yl]-1H-pyrrolo[2,3-b]pyridin-6-yl)cyclopropanecarboxamide], for which the IC50 was 5170 nM in the assay with K562 cells, over 10000 nM in the assay with HL60 cells, 218 nM on ABL1 and 417 nM against ABL1 (T315I).

In the case of `COc1cc2ocnc2cc1-c1c[nH]c2nc(NC(=O)[C@@H]3C[C@@H]3F)ccc12` [Compound 88, (1S,2S)-2-fluoro-N-(3-(6-methoxybenzo[d]oxazol-5-yl)-1H-pyrrolo[2,3-b]pyridin-6-yl)cyclopropane-1-carboxamide], the half-maximal inhibitory concentration (IC50) was 84.1 nM in the assay on K562 cells, over 10000 nM in the assay with HL60 cells, 18.6 nM at ABL1 and 30.9 nM against ABL1 (T315I).

Consider `COc1ccccc1-c1c[nH]c2nc(NC(=O)C3CC3)ccc12` [Compound 1, N-(3-(2-methoxyphenyl)-1H-pyrrolo[2,3-b]pyridin-6-yl)cyclopropanecarboxamide], for which the half-inhibitory concentration (IC50) is 101 nM in the assay with K562 cells, over 10000 nM with HL60 cells, 37.9 nM against ABL1 and 11.3 nM against ABL1 (T315I).

Regarding `COc1ncnc(OC)c1-c1c[nH]c2nc(NC(=O)NCCN3CCNCC3)ccc12` [Compound 138, 3-[3-(4,6-dimethoxypyrimidin-5-yl)-1H-pyrrolo[2,3-b]pyridin-6-yl]-1-[2-(piperazin-1-yl)ethyl]urea], the IC50 in the assay with K562 cells is 527 nM; in the assay with HL60 cells it was over 10000 nM; on ABL1, 51.2 nM; at ABL1 (T315I), 140 nM.

Take `COc1ccccc1-c1c[nH]c2nc(NC(=O)NCCN3CCNCC3)ccc12` [Compound 121, 3-[3-(2-methoxyphenyl)-1H-pyrrolo[2,3-b]pyridin-6-yl]-1-[2-(piperazin-1-yl)ethyl]urea]: the concentration for half-maximal inhibition (IC50) in the assay on K562 cells is 365 nM; in the assay on HL60 cells, over 10000 nM; on ABL1, 31.8 nM; on ABL1 (T315I), 5.98 nM.

`COc1ccc(F)cc1-c1n[nH]c2nc(NC(=O)NCCN3CCN(C)CC3)ccc12` [Compound 79, 3-[3-(5-fluoro-2-methoxyphenyl)-1H-pyrazolo[3,4-b]pyridin-6-yl]-1-[2-(4-methylpiperazin-1-yl)ethyl]urea]: the half-inhibitory concentration (IC50) in the assay on K562 cells is 719 nM; with HL60 cells it was over 10000 nM; against ABL1, 143 nM; on ABL1 (T315I), 108 nM.

Take `COc1cc2ncsc2cc1-c1c[nH]c2nc(NC(=O)NCCN3CCNCC3)ccc12` [Compound 139, 3-[3-(5-methoxy-1,3-benzothiazol-6-yl)-1H-pyrrolo[2,3-b]pyridin-6-yl]-1-[2-(piperazin-1-yl)ethyl]urea; bis(formic acid)]: the IC50 with K562 cells was 1380 nM; in the assay with HL60 cells it was over 10000 nM; on ABL1, 18.6 nM; against ABL1 (T315I), 16.8 nM.
